Legend:
Papain = molecular target: T1, Papain (Carica papaya, UniProt P00784); experiment: Binding affinity to Carica papaya papain treated up to 2 hrs at 25 degC by Dixon plot
T1 sequence (P00784 whole entry): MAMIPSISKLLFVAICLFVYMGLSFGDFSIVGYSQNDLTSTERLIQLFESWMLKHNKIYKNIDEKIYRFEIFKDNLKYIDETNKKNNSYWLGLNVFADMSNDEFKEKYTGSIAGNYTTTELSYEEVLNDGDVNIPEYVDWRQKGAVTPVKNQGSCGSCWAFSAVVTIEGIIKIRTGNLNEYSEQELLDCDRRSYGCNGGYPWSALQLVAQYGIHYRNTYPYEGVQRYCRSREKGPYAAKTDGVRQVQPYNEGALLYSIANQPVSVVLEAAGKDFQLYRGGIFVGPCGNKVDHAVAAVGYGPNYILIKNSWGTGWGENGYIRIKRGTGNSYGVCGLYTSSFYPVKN

Cathepsin B = Cathepsin B (Homo sapiens, UniProt P07858); experiment: Binding affinity to cathepsin B treated up to 2 hrs at 37degC by Dixon plot

Ki (Papain) | Ki (Cathepsin B) | SMILES
73 µM | 244 µM | COC(=O)[C@H](C)NC(=O)[C@H](C)NC(=O)C[C@@H]1O[C@H]1CNC(=O)[C@H](Cc1ccccc1)NC(=O)OCc1ccccc1
390 µM | 1020 µM | O=C(N[C@@H](Cc1ccccc1)C(=O)NCC1CO1)OCc1ccccc1 (stereo partly specified)
18 µM | 94 µM | COC(=O)[C@H](C)NC(=O)[C@H](C)NC(=O)C[C@H]1O[C@H]1CNC(=O)[C@H](Cc1ccccc1)NC(=O)OCc1ccccc1

From ChEMBL document CHEMBL1141714, “Peptidyl epoxides extended in the P' direction as cysteine protease inhibitors: effect on affinity and mechanism of inhibition” (Bioorg Med Chem, 2008)
